Key:
Assay type in all cases: cell-based
PC12 cells [1] = assay: Serum starvation-induced apoptosis in PC12 cells, cell viability; details: for viability at 1 µM / viability at 3 µM / viability at 10 µM / viability at 30 µM: Rattus norvegicus
PC12 cells [2] = assay: Etoposide-induced apoptosis in PC12 cells, cell viability; details: for viability at 1 µM / viability at 3 µM / viability at 10 µM / viability at 30 µM / viability at 0.1 µM / viability at 0.3 µM: Rattus norvegicus; for protective activity in WT PC12 etoposide assay: WT PC12 cells; for viability at 0.1 µM: 0.1 μM compound, vehicle 52.1 ± 7.32; for viability at 0.3 µM: 0.3 μM compound
PC12 cells [3] = assay: ROS in PC12 cells, CellROX green / DAPI staining after H2O2; details: 400 μM H2O2 for 4 hours, FIG. 5A
Experimental: PC12 cells stained with CellROX and DAPI-blue nuclear stain. Greater intensity of green fluorescence indicates greater levels of ROS. Visualized through a microscope (40× magnification, bar=100 μM).
While flupirtine and retigabine are known antioxidants the inventors have shown (FIGS. 5A and 5B) that neuroprotective derivatives operate by a different mechanism of action. […] PC12 cells stained with CellROX and DAPI-blue nuclear stain. Greater intensity of green fluorescence indicates greater levels of ROS. Visualized through a microscope (40× magnification, bar=100 μM).

[4] = system: CLN3 knockdown mouse fibroblasts; assay: Protective effect in CLN3 knock down mouse fibroblasts; details: FIG. 3B
Text: (§1) FIGS. 3A and 3B show the neuroprotective effect of selected compounds in phenotypic cell lines. In FIG. 3A, the protective effect is shown in siRNA CLN3 knock down PC12 cells. In FIG. 3B the protective effect is shown in wild-type (WT) and CLN3 knock down mouse fibroblasts. Values are represented as mean±SD. *P<0.05, **p<0.01, ***p<0.001 compared to vehicle control, unpaired student t test.
(§2) Protective Effect in Phenotypic Cell Lines. […] The inventors screened a number of compounds in both neuron-like CLN3 siRNA knock down PC12 cells (FIG. 3A) and CLN3 knockdown mouse fibroblasts (FIG. 3B) as phenotypic models of JNCL. […] FIGS. 3A and 3B show the neuroprotective effect of selected compounds in phenotypic cell lines. In FIG. 3A, the protective effect is shown in siRNA CLN3 knock down PC12 cells. In FIG. 3B the protective effect is shown in wild-type (WT) and CLN3 knock down mouse fibroblasts. Values are represented as mean±SD. *P<0.05, **p<0.01, ***p<0.001 compared to vehicle control, unpaired student t test. […] Selected derivatives show greater protective effect than flupirtine in patient lympoblast cells in CLN1, CLN2, CLN3, CLN6 and CLN8 disease (FIGS. 4A to 4E). FIGS. 4A to 4E show the percentage of patient lymphoblast cells (%), using Trypan Blue dye with Flupirtine (20 μM, vehicle %1 EtOH), drug 3 (20 μM, vehicle %1 EtOH), drug 5 (50 μM, vehicle %4 DMSO) or drug 6 (20 μM, vehicle %4 DMSO) at 24 h. CLN1 (FIG. 4A), CLN2 (FIG. 4B), CLN3 (FIG. 4C), CLN6 (FIG. 4D), and CLN8 (FIG. 4E).

[5] = system: CLN3 siRNA knock down PC12 cells; assay: Protective effect in siRNA CLN3 knock down PC12 cells; details: FIG. 3A
Text: as §1, §2

[6] = PC-12, 1 μM compound, serum starvation-induced apoptosis, PC12 cells, vehicle 55.04 ± 8.99, read-out: % Viability 1 μM
[7] = PC-12, 3 μM compound, serum starvation-induced apoptosis, PC12 cells, read-out: % Viability 3 μM
[8] = PC-12, 10 μM compound, serum starvation-induced apoptosis, PC12 cells, read-out: % Viability 10 μM
[9] = PC-12, 30 μM compound, serum starvation-induced apoptosis, PC12 cells, read-out: % Viability 30 μM
[10] = PC-12, 1 μM compound, etoposide-induced apoptosis, PC12 cells, read-out: % Viability 1 μM
[11] = PC-12, 3 μM compound, etoposide-induced apoptosis, PC12 cells, read-out: % Viability 3 μM
[12] = PC-12, 10 μM compound, etoposide-induced apoptosis, PC12 cells, read-out: % Viability 10 μM
[13] = PC-12, 30 μM compound, etoposide-induced apoptosis, PC12 cells, read-out: % Viability 30 μM
[14] = PC-12, etoposide-induced apoptosis, PC12 cells
[15] = PC-12, read-out: % Viability 1 μM
[16] = PC-12, read-out: % Viability 3 μM
[17] = PC-12, read-out: % Viability 10 μM
[18] = PC-12, read-out: % Viability 30 μM

Row | Compound | viability at 1 µM (PC12 cells [1]; [6]) [%] | viability at 3 µM (PC12 cells [1]; [7]) [%] | viability at 10 µM (PC12 cells [1]; [8]) [%] | viability at 30 µM (PC12 cells [1]; [9]) [%] | viability at 1 µM (PC12 cells [2]; [10]) [%] | viability at 3 µM (PC12 cells [2]; [11]) [%] | viability at 10 µM (PC12 cells [2]; [12]) [%] | viability at 30 µM (PC12 cells [2]; [13]) [%] | also measured
1 | CCOC(=O)Nc1ccc(NCc2cccc(C(F)(F)F)c2)nc1N [NK-16-3, Ethyl 6-(3-(trifluoromethyl)benzylamino)-2-aminopyridin-3-ylcarbamate] | 83.6 ± 14.3 | 80.7 ± 8.11 | 86.9 ± 9.07 | 84.2 ± 16.1 | 59.9 ± 13.8 | 68.2 ± 7.5 | 60.4 ± 19.4 | 46.4 ± 12.8 | 
2 | CCCOC(=O)Nc1ccc(NCc2ccc(F)cc2)cc1N [NK-30-2, Propyl (2-amino-4-((4-fluorobenzyl)amino)phenyl)carbamate] | 70.4 ± 3.39 | 78.3 ± 7.18 | 84.6 ± 4.75 | 76.2 ± 1.61 | 54.1 ± 9.34 | 55.6 ± 7.41 | 61.6 ± 4.82 | 61.6 ± 18.1 | 
3 | Nc1nc(NCc2ccc(F)cc2)ccc1NC(=O)OCc1ccccc1 [NK-10-1, Benzyl 6-(4-fluorobenzylamino)-2-aminopyridin-3-ylcarbamate] | 93.4 ± 12.4 | 90.4 ± 11.2 | 92.7 ± 12.8 | 96.1 ± 15.3 | 60.1 ± 7.91 | 82 ± 4.43 | 66.2 ± 6.26 | 57.4 ± 2.24 | amelioration of reactive oxygen species (ROS) (PC12 cells [3]): no amelioration of reactive oxygen species (ROS); protective activity [4]: greater activity than flupirtine; protective activity [5]: greater activity than flupirtine; protective activity in WT PC12 etoposide assay (PC12 cells [2]): greater neuroprotective activity
4 | Nc1ccc(N(Cc2ccc(F)cc2)C(=O)OCc2ccccc2)cc1N [NK-22-6] | 68.1 ± 8.86 | 82.5 ± 10.5 | 74.5 ± 8.48 | 37.4 ± 4.98 | 69.1 ± 20.1 | 100 ± 5.4 | 98.9 ± 7.93 | 78.6 ± 23 | 
5 | CC(C)COC(=O)Nc1ccc(NCc2ccc(F)cc2)nc1N [NK-8-1, Isobutyl 6-(4-fluorobenzylamino)-2-aminopyridin-3-ylcarbamate] | 67.9 ± 12.6 | 77.4 ± 11.7 | 89.7 ± 6.68 | 88.3 ± 10.8 | 57.9 ± 22.4 | 62.9 ± 2.98 | 46.5 ± 3.36 | 56.1 ± 0.67 | 
6 | COC(=O)Nc1ccc(NCc2cccc(C(F)(F)F)c2)nc1N [NK-16-4, Methyl 6-(3-(trifluoromethyl)benzylamino)-2-aminopyridin-3-ylcarbamate] | 92.1 ± 10.2 | 88 ± 8.56 | 97.8 ± 9.35 | 97.6 ± 1800 | 46.7 ± 3.26 | 41.3 ± 10.1 | 28.6 ± 2.14 | 37 ± 3.91 | 
7 | CCOC(=O)Nc1ccc(NCc2cc(C(F)(F)F)cc(C(F)(F)F)c2)nc1N [NK-17-3, Ethyl (2-amino-6-((3,5-bis(trifluoromethyl)benzyl)amino)pyridin-3-yl)carbamate] | 81.8 ± 8.69 | 72.8 ± 12.4 | 78.5 ± 6.27 | 57.9 ± 9.54 | 63.7 ± 22.7 | 75.7 ± 6.39 | 68.1 ± 9.52 | 56 ± 6.26 | 
8 | C=CCOC(=O)Nc1ccc(NCc2cccc(C(F)(F)F)c2)nc1N [NK-16-6, Allyl 6-(3-(trifluoromethyl)benzylamino)-2-aminopyridin-3-ylcarbamate] | 77.1 ± 12.1 | 87.8 ± 10 | 92 ± 13 | 74.5 ± 11.9 | 78 ± 37.1 | 107 ± 2.3 | 101 ± 9.58 | 87.6 ± 21.9 | protective activity in WT PC12 etoposide assay (PC12 cells [2]): provides greater activity
9 | 2-chloroethyl 6-(4-fluorobenzylamino)-2-aminopyridin-3-ylcarbamate [NK-23-1] |  |  |  |  |  |  |  |  | % Viability 1 μM (PC12 cells [1]; 1 μM compound, serum starvation-induced apoptosis, PC12 cells, vehicle 55.04 ± 8.99): 84.07 ± 11.85%; % Viability 3 μM (PC12 cells [1]; 3 μM compound, serum starvation-induced apoptosis, PC12 cells): 83.62 ± 5.88%; % Viability 10 μM (PC12 cells [1]; 10 μM compound, serum starvation-induced apoptosis, PC12 cells): 100.15 ± 15.84%; % Viability 30 μM (PC12 cells [1]; 30 μM compound, serum starvation-induced apoptosis, PC12 cells): 106.47 ± 15.46%; % Viability 1 μM (PC12 cells [2]; 1 μM compound, etoposide-induced apoptosis, PC12 cells): 54.01 ± 13.43%; % Viability 3 μM (PC12 cells [2]; 3 μM compound, etoposide-induced apoptosis, PC12 cells): 53.92 ± 6.37%; % Viability 10 μM (PC12 cells [2]; 10 μM compound, etoposide-induced apoptosis, PC12 cells): 41.79 ± 4.38%; % Viability 30 μM (PC12 cells [2]; 30 μM compound, etoposide-induced apoptosis, PC12 cells): 40.77 ± 6.98%
10 | COC(=O)Nc1ccc(NCc2ccc(F)cc2)nc1N [NK-3-1, Methyl 6-(4-fluorobenzylamino)-2-aminopyridin-3-ylcarbamate] | 76.9 ± 10.2 | 79.1 ± 8.28 | 72.2 ± 9.15 | 72.3 ± 16.4 | 74.5 ± 33.1 | 96.6 ± 14.6 | 82.2 ± 23.4 | 63.3 ± 27.4 | 
11 | CC(Cl)OC(=O)Nc1ccc(NCc2ccc(F)cc2)nc1N (centres unmarked) [NK-21-1, 1-chloroethyl 6-(4-fluorobenzylamino)-2-aminopyridin-3-ylcarbamate] | 74.2 ± 11.5 | 75.6 ± 13.4 | 91.7 ± 6.31 | 84 ± 13.8 | 69.5 ± 13.2 | 88.9 ± 21.5 | 84.3 ± 32.2 | 84.8 ± 33.7 | 
12 | CCOC(=O)Nc1ccc(NCc2ccc(C)cc2)cc1N [JG-32-3, Ethyl (2-amino-4-((4-methylbenzyl)amino)phenyl)carbamate] | 62.6 ± 16.7 | 79.54 ± 0.6 | 77.9 ± 1.34 | 71.33 ± 0.03 | 110 ± 39.4 | 136 ± 30.1 | 123 ± 23.2 | 98 ± 22.9 | protective activity in WT PC12 etoposide assay (PC12 cells [2]): significant increase in potency
13 | CCOC(=O)Nc1ccc(NC(C)c2ccccc2)nc1N (centres unmarked) [NK-52-3, Ethyl (2-amino-6-((1-phenylethyl)amino)pyridin-3-yl)carbamate] |  |  |  |  | 56.7 ± 5.69 | 66.2 ± 4.77 | 53.2 ± 2.3 | 24 ± 6.78 | viability at 0.1 µM (PC12 cells [2]; [14]): 50 ± 1.04%; viability at 0.3 µM (PC12 cells [2]; [14]): 56 ± 4.21%
14 | CCOC(=O)Nc1ccc(NCc2ccc(OC(F)(F)F)cc2)nc1N [JG-33-4, Ethyl (2-amino-6-((4-(trifluoromethoxy)benzyl)amino)pyridin-3-yl)carbamate] |  |  |  |  | 79.8 ± 12.8 | 95.3 ± 14.6 | 88.9 ± 12.6 | 82.4 ± 12.6 | viability at 0.1 µM (PC12 cells [2]; [14]): 71.3 ± 16.1%; viability at 0.3 µM (PC12 cells [2]; [14]): 81.6 ± 10.9%
15 | C=CCOC(=O)Nc1ccc(NCc2ccc(Cl)cc2)nc1N [JG-4-5] | 72.3 ± 1.45 | 95.2 ± 2.41 | 70.2 ± 9.45 | 71.1 ± 8.61 | 87.2 ± 19.8 | 79.7 ± 7.48 | 84.3 ± 13.2 | 80.4 ± 24.1 | 
16 | CCOC(=O)Nc1ccc(NCc2ccc(F)cc2)cc1N [NK-22-13, Ethyl (2-amino-4-((4-fluorobenzyl)amino)phenyl)carbamate, reference compound] |  |  |  |  |  |  |  |  | amelioration of reactive oxygen species (ROS) (PC12 cells [3]): do ameliorate ROS; viability at 1 µM (PC12 cells [1]; [15]): 75.9 ± 15%; viability at 3 µM (PC12 cells [1]; [16]): 77.9 ± 22.6%; viability at 10 µM (PC12 cells [1]; [17]): 85.8 ± 17.9%; viability at 30 µM (PC12 cells [1]; [18]): 76.2 ± 25%; viability at 1 µM (PC12 cells [2]; [15]): 58.3 ± 2.86%; viability at 3 µM (PC12 cells [2]; [16]): 73.9 ± 13.9%; viability at 10 µM (PC12 cells [2]; [17]): 66.3 ± 17.6%; viability at 30 µM (PC12 cells [2]; [18]): 52.1 ± 7.62%

Reference: patent US11369593B2 (Texas Tech University System, priority 2017, dated 2022)
